Test [1] relates to rats. The test is described as follows: Passive avoidance in rats, an in vivo test for learning and memory. The following applies: rat, MK-801 0.1 mg/kg, 24 hours after electric shock, p<0.001. As for the experimental part: The test was performed as previously described (Zhang, H.-T., Crissman, A. M., Dorairaj, N. R., Chandler, L. J., and O'Donnell, J. M., Neuropsychopharmacology, 2000, 23, 198-204.). The apparatus (Model E10-16SC, Coulboum Instruments, Allentown, Pa.) consisted of a two-compartment chamber with an illuminated compartment connected to a darkened compartment by a guillotine door. The floor of the darkened compartment consisted of stainless steel rods through which an electric foot-shock could be delivered from a constant current source. All experimental groups were first habituated to the apparatus the day before the start of the experiment. During the training, the rat (Male Spraque-Dawley (Harlan) weighing 250 to 350 g) was placed in the illuminated compartment facing away from the closed guillotine door for 1 minute before the door was raised. The latency for entering the darkened compartment was recorded. After the rat entered the darkened compartment, the door was closed and a 0.5 mA electric shock was administered for 3 seconds. […] The latency for entering the darkened compartment was recorded for up to 180 seconds, at which time the trial was terminated.
(§1) All data were analyzed by analyses of variance (ANOVA); individual comparisons were made using Kewman-Keuls tests. […]

For test [2], the system named is rats. The test is described as follows: Radial arm maze task in rats, an in vivo test for learning and memory. To be noted: rat, MK-801 0.1 mg/kg i.p., p<0.01. As for the experimental part:
The test was performed as previously described (Zhang, H.-T., Crissman, A. M., Dorairaj, N. R., Chandler, L. J., and O'Donnell, J. M., Neuropsychopharmacology, 2000, 23, 198-204.). Five days after initial housing, rats (male Spraque-Dawley (Harlan) weighing 250 to 350 g) were placed in the eight-arm radial maze (each arm was 60×10×12 cm high; the maze was elevated 70 cm above the floor) for acclimation for two days. Rats were then placed individually in the center of the maze for 5 minutes with food pellets placed close to the food wells, and then, the next day, in the wells at the end of the arms; 2 sessions a day were conducted. Next, four randomly selected arms were then baited with one pellet of food each. The rat was restricted to the center platform (26 cm in diameter) for 15 seconds and then allowed to move freely throughout the maze until it collected all pellets of food or 10 minutes passed, whichever came first.
Four parameters were recorded: 1) working memory errors, i.e., entries into baited arms that had already been visited during the same trial; 2) reference memory errors, i.e., entries into unbaited arms; 3) total arm entries; and 4) the test duration (seconds), i.e., the time spent in the collection of all the pellets in the maze. […]
as §1

Take `C[C@]12N[C@H](Cc3ccccc31)c1ccccc12` [MK-801]: in test [1], the “latency for entering the darkened compartment compared to the vehicle” value was “markedly reduced this latency”. In addition, the “frequencies of working and reference memory errors compared to control” value in test [2] was “increased the frequencies of both working and reference memory errors”.

For the origin of these results see US20070049611A1, “Phosphodiesterase 4 inhibitors” (priority 2005, published 2007).
